In PMC4476799, “Englerin A Agonizes the TRPC4/C5 Cation Channels to Inhibit Tumor Cell Line Proliferation” (PLoS ONE, 2015):
Like-named read-outs stand apart in the source and are kept apart here.

Test system: cancer cell lines from the cancer cell line encyclopedia (CCLE)
Assay: Cell line profiling (CLiP) proliferation experiment
Assay type: cell-based
Set-up: key to Compound Activity (1-inactive;2-active): 1-inactive; 2-active; ACTIVITY_AREA: scale not given here; AMAX: unit not given here
Conditions: for IC50: read-out: Crossing Point; for EC50: read-out: Inflection Point
Experimental: Compound profiling experiment and data analysis was performed as previously described. Data was imported and plotted using the Tibco Spotfire DXP application. Lines were categorized as sensitive, intermediate and refractory as follows: Amax<-40 & Inflection Point <2 ~ Sensitive, Amax>-20 & Inflection Point >10 ~ Refractory, all else were called Intermediate. Cancer Cell line HG-U133 Plus 2 data was processed and normalized as described. […] Five sets of refractory cell lines were generated from the pool of refractory cell lines trying to match the lineage composition of the set of sensitive cell lines. The limma package was used as previously described to perform the statistical comparison.

[1] = cell line GA-10, haematopoietic_and_lymphoid_tissue
[2] = cell line GAMG, central_nervous_system
[3] = cell line GI-1 (central_nervous_system, gliosarcoma)
[4] = cell line GI-1, central_nervous_system
[5] = cell line GMS-10, central_nervous_system
[6] = cell line GOS-3 (central_nervous_system, astrocytoma)
[7] = cell line GOS-3, central_nervous_system
[8] = cell line GP2d, large_intestine
[9] = cell line GRANTA-519, haematopoietic_and_lymphoid_tissue
[10] = cell line H4, central_nervous_system
[11] = cell line HARA (lung, squamous_cell_carcinoma)
[12] = cell line HH, haematopoietic_and_lymphoid_tissue
[13] = cell line Hs 611.T, haematopoietic_and_lymphoid_tissue
[14] = cell line MCAS (ovary, mucinous_carcinoma)
[15] = cell line MOG-G-UVW (central_nervous_system)
[16] = cell line NB-1 (autonomic_ganglia)
[17] = cell line NB-4 (haematopoietic_and_lymphoid_tissue)
[18] = cell line SNU-119, ovary, adenocarcinoma
[19] = cell line SNU-626 (central_nervous_system, astrocytoma_Grade_IV)
[20] = cell line SNU-1079, biliary_tract

CC(C)[C@@]12C[C@@H](O)[C@@](C)(O1)[C@@H]1CC[C@@H](C)[C@H]1[C@@H]2OC(=O)/C=C/c1ccccc1 [Englerin B]
ACTIVITY_AREA [1]: 28.18
AMAX [1]: 8.5
RESPONSE [1]: REFRACTORY
ACTIVITY_AREA [2]: 50.48
AMAX [2]: -45.21
RESPONSE [2]: INTERMEDIATE
ACTIVITY_AREA (cell line GCIY, stomach): 49.94
AMAX (cell line GCIY, stomach): -70.92
RESPONSE (cell line GCIY, stomach): INTERMEDIATE
Compound Activity (1-inactive;2-active) (cell line GCT (soft_tissue, NS)): 1
ACTIVITY_AREA (cell line GCT, soft_tissue): 17.95
AMAX (cell line GCT, soft_tissue): -52.9
RESPONSE (cell line GCT, soft_tissue): INTERMEDIATE
IC50 (cell line GCT, soft_tissue): 27.1 µM
EC50 (cell line GCT, soft_tissue): 16.4 µM
Compound Activity (1-inactive;2-active) [3]: 1
IC50 [3]: > 30 µM
ACTIVITY_AREA [4]: 112.12
AMAX [4]: -25.87
RESPONSE [4]: INTERMEDIATE
IC50 [4]: > 30 µM
ACTIVITY_AREA [5]: 21.47
AMAX [5]: -32.03
RESPONSE [5]: INTERMEDIATE
Compound Activity (1-inactive;2-active) [6]: 1
IC50 [6]: > 30 µM
ACTIVITY_AREA [7]: 26.28
AMAX [7]: -31.04
RESPONSE [7]: INTERMEDIATE
IC50 [7]: > 30 µM
ACTIVITY_AREA [8]: 32.63
AMAX [8]: -48.04
RESPONSE [8]: INTERMEDIATE
ACTIVITY_AREA (cell line GR-M, skin): 48.68
AMAX (cell line GR-M, skin): -36.64
RESPONSE (cell line GR-M, skin): INTERMEDIATE
IC50 (cell line GR-M, skin): > 30 µM
IC50 (cell line GR-M): > 30 µM
ACTIVITY_AREA [9]: 14.82
AMAX [9]: 16.83
RESPONSE [9]: REFRACTORY
ACTIVITY_AREA [10]: 16.33
AMAX [10]: -3.42
RESPONSE [10]: REFRACTORY
IC50 [10]: > 30 µM
IC50 (cell line H4): > 30 µM
Compound Activity (1-inactive;2-active) [11]: 1
IC50 [11]: 15.9 µM
ACTIVITY_AREA (cell line HARA, lung): 73.57
AMAX (cell line HARA, lung): -72.32
RESPONSE (cell line HARA, lung): INTERMEDIATE
IC50 (cell line HARA, lung): 15.9 µM
Compound Activity (1-inactive;2-active) (cell line HCC-15 (lung, squamous_cell_carcinoma)): 1
ACTIVITY_AREA (cell line HCC-15, lung): 57.49
AMAX (cell line HCC-15, lung): -70.57
RESPONSE (cell line HCC-15, lung): INTERMEDIATE
Compound Activity (1-inactive;2-active) (cell line HCC-44 (lung, adenocarcinoma)): 1
RESPONSE (cell line HCC-44, lung): INTERMEDIATE
RESPONSE (cell line HCC-366, lung): REFRACTORY
Compound Activity (1-inactive;2-active) (cell line HCC-1171 (lung, non_small_cell_carcinoma)): 1
ACTIVITY_AREA (cell line HCC-1171, lung): 53.16
AMAX (cell line HCC-1171, lung): -52.03
RESPONSE (cell line HCC-1171, lung): INTERMEDIATE
IC50 (cell line HEC-59, endometrium): 19.1 µM
IC50 (cell line HEC-151, endometrium): 16.5 µM
IC50 (cell line HEC-265, endometrium): 27.1 µM
EC50 (cell line HEC-265, endometrium): 27.1 µM
Compound Activity (1-inactive;2-active) (cell line HEL 92.1.7 (haematopoietic_and_lymphoid_tissue, acute_myeloid_leukaemia)): 1
IC50 [12]: 10.1 µM
EC50 [12]: 9.47 µM
IC50 (cell line HLC-1, lung): > 30 µM
IC50 (cell line HLC-1): > 30 µM
IC50 (cell line HLF, liver): > 30 µM
EC50 (cell line HLF, liver): 16.8 µM
IC50 (cell line HLF): > 30 µM
IC50 (cell line HMC-1-8, breast): 29.7 µM
Compound Activity (1-inactive;2-active) (cell line HPB-ALL (haematopoietic_and_lymphoid_tissue, acute_lymphoblastic_T_cell_leukaemia)): 1
IC50 (cell line HT, haematopoietic_and_lymphoid_tissue): > 30 µM
IC50 (cell line HT): > 30 µM
IC50 (cell line HTK-, haematopoietic_and_lymphoid_tissue): 28.6 µM
IC50 (cell line Hs 571.T, ovary): 19.6 µM
EC50 (cell line Hs 571.T, ovary): 19.6 µM
IC50 [13]: 20.9 µM
EC50 [13]: 20.9 µM
IC50 (cell line Hs 729, soft_tissue): > 30 µM
IC50 (cell line Hs 729): > 30 µM
IC50 (cell line Hs 936.T, skin): > 30 µM
EC50 (cell line Hs 936.T, skin): 7.96 µM
IC50 (cell line Hs 936.T): > 30 µM
IC50 (cell line Hs 939.T, skin): > 30 µM
IC50 (cell line Hs 939.T): > 30 µM
IC50 (cell line Hs 940.T, skin): > 30 µM
IC50 (cell line Hs 944.T, skin): 20.6 µM
EC50 (cell line Hs 944.T, skin): 17.1 µM
IC50 (cell line HuG1-N, stomach): 10.9 µM
IC50 (cell line J82): > 30 µM
IC50 (cell line KLE): > 30 µM
Compound Activity (1-inactive;2-active) (cell line Loucy (haematopoietic_and_lymphoid_tissue, acute_lymphoblastic_T_cell_leukaemia)): 1
Compound Activity (1-inactive;2-active) (cell line MC116 (haematopoietic_and_lymphoid_tissue, B_cell_lymphoma_unspecified)): 1
Compound Activity (1-inactive;2-active) [14]: 1
IC50 [14]: > 30 µM
Compound Activity (1-inactive;2-active) (cell line MDA-MB-231 (breast, NS)): 1
Compound Activity (1-inactive;2-active) (cell line MDA-MB-453 (breast, NS)): 1
Compound Activity (1-inactive;2-active) (cell line MEC-1 (haematopoietic_and_lymphoid_tissue, chronic_lymphocytic_leukaemia-small_lymphocytic_lymphoma)): 1
IC50 (cell line MEL-HO (skin)): > 30 µM
IC50 (cell line MEL-HO): > 30 µM
IC50 (cell line MHH-NB-11 (autonomic_ganglia)): 26.9 µM
IC50 (cell line MJ (haematopoietic_and_lymphoid_tissue)): 9.13 µM
IC50 [15]: > 30 µM
EC50 [15]: 10.2 µM
IC50 (cell line MOG-G-UVW): > 30 µM
Compound Activity (1-inactive;2-active) (cell line MOLT-16 (haematopoietic_and_lymphoid_tissue, acute_lymphoblastic_T_cell_leukaemia)): 1
Compound Activity (1-inactive;2-active) (cell line MONO-MAC-6 (haematopoietic_and_lymphoid_tissue, acute_myeloid_leukaemia)): 1
IC50 (cell line MOR/CPR (lung)): 28.3 µM
EC50 (cell line MOR/CPR (lung)): 12.9 µM
EC50 (cell line MOR/CPR): 12.9 µM
Compound Activity (1-inactive;2-active) (cell line MeWo (skin, NS)): 1
IC50 (cell line Mel285 (eye)): > 30 µM
EC50 (cell line Mel285 (eye)): 13.8 µM
IC50 (cell line Mel285): > 30 µM
IC50 [16]: 22.3 µM
EC50 [16]: 22.3 µM
IC50 [17]: 18.5 µM
EC50 [17]: 11.5 µM
Compound Activity (1-inactive;2-active) (cell line NCI-H1048 (lung, small_cell_carcinoma)): 1
Compound Activity (1-inactive;2-active) (cell line NCI-H1299 (lung, non_small_cell_carcinoma)): 1
IC50 (cell line NCI-H1341 (lung)): 15 µM
EC50 (cell line NCI-H1341 (lung)): 15 µM
Compound Activity (1-inactive;2-active) (cell line NCI-H1355 (lung, adenocarcinoma)): 1
Compound Activity (1-inactive;2-active) (cell line NCI-H1792 (lung, adenocarcinoma)): 1
Compound Activity (1-inactive;2-active) (cell line NCI-H2073 (lung, adenocarcinoma)): 1
IC50 (cell line NCI-H2106): > 30 µM
IC50 (cell line NCI-H2330): > 30 µM
IC50 (cell line OC 316): > 30 µM
IC50 (cell line OMM2.3): > 30 µM
EC50 (cell line OMM2.3): 13.6 µM
IC50 (cell line OMM2.5): > 30 µM
IC50 (cell line OV7): > 30 µM
IC50 (cell line OVISE): 17.9 µM
IC50 (cell line PC-3): 25.9 µM
IC50 (cell line PE/CA-PJ41 (clone D2)): 25.8 µM
IC50 (cell line PEER): 13.5 µM
IC50 (cell line RCC10RGB): > 30 µM
IC50 (cell line RCH-ACV): 15.6 µM
EC50 (cell line RCH-ACV): 12.1 µM
IC50 (cell line RD): > 30 µM
IC50 (cell line RERF-LC-AI): > 30 µM
EC50 (cell line RERF-LC-AI): 17.9 µM
IC50 (cell line RI-1): 9.99 µM
EC50 (cell line RI-1): 9.99 µM
IC50 (cell line RKN): > 30 µM
IC50 (cell line RKO): 14.7 µM
EC50 (cell line RKO): 13.1 µM
IC50 (cell line RL): 12.5 µM
EC50 (cell line RL): 11.8 µM
IC50 (cell line RMUG-S): > 30 µM
IC50 (cell line Reh): 21.5 µM
EC50 (cell line Reh): 21.5 µM
IC50 (cell line SEM, haematopoietic_and_lymphoid_tissue, acute_lymphoblastic_B_cell_leukaemia): 14.2 µM
Compound Activity (1-inactive;2-active) (cell line SF-295 (central_nervous_system, astrocytoma_Grade_IV)): 1
IC50 (cell line SH-4, skin): > 30 µM
Compound Activity (1-inactive;2-active) (cell line SK-N-SH (autonomic_ganglia, NS)): 1
IC50 (cell line SNG-M, endometrium, adenocarcinoma): > 30 µM
IC50 [18]: > 30 µM
EC50 [18]: 27.2 µM
Compound Activity (1-inactive;2-active) (cell line SNU-475 (liver, hepatocellular_carcinoma)): 1
Compound Activity (1-inactive;2-active) [19]: 1
IC50 [19]: > 30 µM
IC50 (cell line SNU-626, central_nervous_system, astrocytoma_Grade_IV): > 30 µM
IC50 (cell line SNU-738, central_nervous_system, oligodendroglioma): > 30 µM
IC50 [20]: 25.7 µM
EC50 [20]: 25.7 µM
Compound Activity (1-inactive;2-active) (cell line SW48 (large_intestine, adenocarcinoma)): 1
Compound Activity (1-inactive;2-active) (cell line SW 1783 (central_nervous_system, astrocytoma_Grade_III)): 1
Compound Activity (1-inactive;2-active) (cell line THP-1 (haematopoietic_and_lymphoid_tissue, acute_myeloid_leukaemia)): 1
Compound Activity (1-inactive;2-active) (compound-level call): 1
Compound Activity (1-inactive;2-active) (compound-level call printed on every cell line row): 1
Compound Activity (1-inactive;2-active) (compound-level call, the same on every cell line's row): 1
Compound Activity (1-inactive;2-active) (compound-level flag): 1
Compound Activity (1-inactive;2-active) (compound-level flag repeated on every cell line row): 1
Compound Activity (1-inactive;2-active) (compound-level flag, printed on every cell line row): 1
Compound Activity (1-inactive;2-active) (flag of the compound): 1
Compound Activity (1-inactive;2-active) (overall call per compound): 1
Compound Activity (1-inactive;2-active) (overall class of the compound): 1
Compound Activity (1-inactive;2-active) (printed on every cell line row, same value for the compound throughout): 1
